In test [1] the test system is phospho-ERK1/2, phospho-p38, phospho-JNK and phospho-c-jun. The test can be described thus: Western blot of MAPK demyelination pathways in CMT1A rats. The format is in vivo, rat. The following applies: for activation of phospho-ERK1/2, phospho-p38, phospho-JNK and phospho-c-jun: after 15 and 30 days of treatment. The text has this: While demyelinating diabetes peripheral neuropathy is a commonly acquired disease, demyelination is also the characteristic feature of a large number of inherited diseases called Charcot-Marie-Tooth diseases (CMT). We therefore sought to test whether the inhibition of VDAC1 function could prevent demyelination in these diseases. We choose CMT1A rat strain^42 as this is arguably the most representative animal model of Charcot-Marie-Tooth disease, mimicking CMT1A the most prevalent CMT in humans^10. Twelve weeks old CMT1A rats were daily treated with TRO19622 for 15 or 30 days and one day or two months after treatment, we analyzed MAPK demyelination pathways by western blot. […] However, these effects disappeared two months after treatment. Then we analyzed phospho-c-jun activation in mSC using immunohistochemistry. […] Next, we measured Schwann cell demyelination and g-ratio by toluidine blue staining on semi-thin sciatic nerve sections and on thin sections using electron microscopy.
(In western blotting, separated proteins are transferred to a membrane and probed.)

Test [2] has as its system diabetic (db/db) mice. Kind of test: Electrophysiology (CMAP, NCV) in diabetic mice. The format is in vivo, mouse. The conditions noted are these: after 30 days of treatment. How it is done:
(§1) Standard electroneurography was performed before, during and after TRO 19622 drug treatment on CMT1A rats and diabetic mice that were anesthetized with 3% isoflurane. A pair of steel needle electrodes (AD Instruments, MLA1302, Oxford, UK) was placed subcutaneously along the nerve at sciatic notch (proximal stimulation). A second pair of electrodes was placed along the tibial nerve above the ankle (distal stimulation). Supramaximal square wave pulses lasting 10 ms and 1 mA for mice and 3.6 mA for rats were delivered using a PowerLab 26T (AD Instruments, Oxford, UK). Compound muscle action potential (CMAP) was recorded from the intrinsic foot muscles using steel electrodes. Both amplitudes and latencies of CMAP were determined. The distance between the two sites of stimulation was measured alongside the skin surface with fully extended legs, and nerve conduction velocities (NCVs) were calculated automatically from sciatic nerve latency measurements (for further details Fledrich et al., 2014^10).
As previously reported^37, 38, we observed a reduction of the nerve conduction velocity in db/db diabetic mice with no change in the amplitude of the compound of action potentials (CMAP).

The subject of test [3] is diabetic (db/db) mice. The test can be described thus: Behavioral tests (rotarod, grip, CatWalk) in diabetic mice. The format is in vivo, mouse. The protocol:
[…] Mice and rats were first given a pretraining trial of two days to familiarize them with the rotating rod. For control and diabetic mice latency to fall was measured at fixed speed 10 rpm over a 180 s time as a cut-off. No acceleration testing was performed for mice. For control and CMT1A rats latency to fall and maximum rpm (revolutions per minute) were measured at accelerated speed. […] Each animal underwent three trials a day. For each day, data were averaged for each animal (values from the three trials), normalized according to animal weight and then averaged for each treated group.
[…] The runs were analyzed when the speed of crossing was constant and homogenous. At least three compliant runs were analyzed for each animal Data were averaged per animal, normalized according to animal weight and then per treated group. The resulting data provided quantitative parameters and qualitative walking patterns.
Neuromuscular strength of diabetic mice and CMT rats was assessed in standardized grip strength tests for front, hind and all limbs. All limbs grip strength was measured by rat supporting on the metal grid and pulling the animal's tail toward a horizontal grid connected to a gauge. Front and hind limb grip strength were measured by supporting the forelimbs or hindlimbs respectively and pulling the animal's tail toward a horizontal T-bar connected to a gauge. The maximum force (measured in newtons) exerted onto the T-bar or grid before the animals lost grip was recorded, and the mean of 3 repeated measurements was calculated. All data were normalized according to animal weight.
Finally, although the obesity of db/db diabetic mice hinders functional motor tests, we evaluated their neuromuscular performances during drug treatment using rotarod, grip and Catwalk tests. […] Rotarod and grip strength recoveries were not due to a reduced weight as no change in mice weight was observed during treatment.
Background: The rotarod test checks motor coordination on a turning rod.

The test system of a further test is CMT1A rats. The test can be described thus: Electrophysiology (CMAP, NCV) in CMT1A rats. The format is in vivo, rat. The conditions noted are these: CMT1A rats treated daily for one month. The protocol:
as §1

SMILES strings stand for the structures.

As for `CC(C)CCC[C@@H](C)[C@H]1CC[C@H]2[C@@H]3CCC4=C/C(=N\O)CC[C@]4(C)[C@H]3CC[C@]12C` [TRO19622, (NZ)—N-[(8S,9S,10R,13R,14S,17R)-10,13-dimethyl-17-[(2R)-6-methylheptan-2-yl]-1,2,6,7,8,9,11,12,14,15,16,17-dodecahydrocyclopenta[a]phenanthren-3-ylidene]hydroxylamine], the “activation of phospho-ERK1/2, phospho-p38, phospho-JNK and phospho-c-jun” value is “significant down-regulation” in test [1] and “prevented” in test [1] (listed as TRO16922). Also, the “down-regulation of MAPK demyelination pathways after treatment stop” value in test [1] (two months after treatment) was “disappeared”. Further, the CMAP amplitude result in the test with diabetic (db/db) mice [2] is recorded as “without change”; in the test with CMT1A rats, “significant increase”. Further, the nerve conduction velocity entry with diabetic (db/db) mice [2] is reported as “significantly increased to reach control mice velocity”; in the test on CMT1A rats, “significant increase”; with CMT1A rats (listed as TRO16922), “largely improved”. Further, in the test on diabetic (db/db) mice [3], the Catwalk test parameters entry is on record as “no change”. The “myelin thickness, nerve conduction velocity and neuromuscular defects (all these parameters)” value in the test on diabetic (db/db) mice [3] is “steadily improve”. Moreover, the “effects on MAPK activation, nerve structure and neuromuscular performance after stopping the treatment” value in the test on diabetic (db/db) mice [3] (2 months after stopping the treatment) is recorded as “did not last”. The grip strength entry with diabetic (db/db) mice [3] (20 days after treatment) is “significant increase”. Further, the rotarod latency result with diabetic (db/db) mice [3] (20 days after treatment) is “significant increase”.

The values are drawn from patent US12053480B2, “Methods and pharmaceutical compositions for treating peripheral demyelinating diseases” (INSERM (INSTITUT NATIONAL DE LA SANTE ET DE LA RECHERCHE …, priority 2015, dated 2024).
